Patent US20200277571A1, “METHOD FOR AMPLIFYING CONE PHOTORECEPTORS OR ROD PHOTORECEPTORS USING DORSALIZATION SIGNAL TRANSMITTER OR VENTRALIZATION SIGNAL TRANSMITTER” (RIKEN, priority 2017, published 2020)

Test system: S-opsin, M-opsin, L-opsin
Assay: Quantitative PCR of S-opsin, M-opsin, L-opsin after maturation culture in serum-free medium
Assay type: cell-based, human
Conditions: T3 added (0-8 nM) in serum-free DMEM/F12 after about day 190, not less than 30 days
Experimental: By a method similar to the methods described in Example 1 and Example 3, a cell aggregate containing a retinal tissue in a differentiation stage matured to the level that Muller cell was observed was prepared and culture was performed, in the serum-containing medium used, up to about day 190 to give a retinal tissue in a differentiation stage matured to the level that Muller cell was observed. Thereafter, by a method similar to the methods described in Example 11 and 12, further maturation was performed. That is, 0-1.35 nM BMP4 and 0-8 nM T3 were added to a medium obtained by adding 1% N2 supplement and 100 μM taurine but not adding 10% fetal calf serum to DMEM/F12 medium containing glutamic acid as a component, and culture was performed for not less than 30 days from the start of culture for further maturation. A cell aggregate containing a retinal tissue was recovered, quantitatively PCR was performed according to a conventional method, and the expression levels of S-opsin, M-opsin, L-opsin were confirmed. As a result, irrespective of the presence or absence of BMP4, the expression of S-opsin was promoted when T3 was absent.

N[C@@H](Cc1cc(I)c(Oc2ccc(O)c(I)c2)c(I)c1)C(=O)O [T3, triodo-I-thyronine]
expression of S-opsin: suppressed
